In general, IC50 refers to the midpoint of a concentration-inhibition curve.

The structures appear in SMILES notation.

In one assay the target is human VPS34 (Homo sapiens (Human), UniProt Q8NEB9). The assay can be described thus: Human VPS34 enzyme assay (Adapta TR-FRET ADP detection). It counts as biochemical. To be noted: IC50 range class. On the technique in general: In TR-FRET formats the signal depends on donor and acceptor labels being close together.
The test system of the next assay is NCI-H1650 cell line. The assay is described as follows: Cellular anti-proliferative assay of VPS34 inhibitors in combination with a second therapeutic agent (Cell Titer Glo, 72 hrs). Type of assay: cell-based, human. The settings on record: NCI H-1650; for Blending Synergy: in combination with Erlotinib (Compound Y). The method, then: (§1) Example 57: Cellular Assay for Anti-proliferative Activity of VPS34 Inhibitors in Combination with a Second Therapeutic Agent
(§2) Cells were plated in 25 μl of media in 384 well plates at 1,000 cells per well (A431, PC9, and […] cell lines), 1,500 cells per well (NCI-H1975) or 2,000 cells per well (NCI-H1650). The plates were incubated for 24 hrs at 37° C., 6% CO2. The test compounds (see Table 38 below) were diluted serially, and 62.5 nL of each compound solution (or DMSO, if it is a single agent experiment) is added so the total added to the cells is 125 nL. Cell plates were incubated for 72 hrs at 37° C., 6% CO2. Cell Titer Glo reagent (Promega) was added. The plates were then incubated for 10 minutes at room temperature before luminescence was read on a plate reader such as the Pherastar Plus, Pherastar FS, or LEADSeeker imaging system.
(§3) Bliss antagonism was defined similarly.
(§4) Bliss dependence was defined as the percent cell survival at a certain dose combination divided by the percent cell survival predicted by Bliss independence. More specifically, the Bliss dependence is vAB/(vA*vB), where vAB is the viability with drug A and drug B added, while vA and vB are the viabilities with each drug alone. The dose for the combination used in this study is the inflection point for each drug alone.
(§5) Another way to evaluate additivity is through consideration of Loewe additivity. A difference between Bliss independence and Loewe additivity evaluations of drug combination data is that Bliss independence evaluates whether two drugs interact at all (the null hypothesis is that the mechanisms are entirely independent) and Loewe additivity evaluates whether two drugs interact in an additive fashion (the null hypothesis is that the two drugs work by identical mechanisms). For Bliss independence, the boundary between additivity and synergy must be measured. For Loewe additivity, this boundary is assumed to be at a value of 1. Thus, Bliss independence provides a boundary between antagonism and synergy or additivity. Loewe additivity provides a boundary between synergy and independence or antagonism.
(§6) Synergy can also be measured by nonlinear blending synergy. Nonlinear blending synergy [Peterson, J. J. and Novik, S. J. J Recept Signal Transduct Res, 27, 12-146 (2007))] is found by considering the percent cell death values along the nonlinear blending plot. If the maximum cell death occurs between the endpoints, then the blending synergy is the difference between the maximum cell death for the combined drugs and the maximum cell death for the either drug alone.
(§7) A derivative of Loewe additivity is the Combination Index, I (see Chou T. C., Talalay P. Adv. Enzyme Reg., 22: 27-55 (1984) and Berenbaum M. C. J. Theor. Biol., 114:413-431 (1985)). This measure is based on the shape of the isobologram which represents 50% viability (for a review of the use of isobolograms in analysis of drug combinations, see Tallarida, R. J. J. Pharm. Exp. Therap. 319:1-7 (2006)).
(§8) The results in Table 38A were summarized by categorizing the Combination Index, I. A mean Combination Index in the range (0.7-1.3) is classified as Additivity. A mean in the range (0-0.7) is classified as Synergy. A mean in the range (1.3-2) is classified as Subadditivity. A mean greater than 2 is classified as Antagonism. […] In this case, the Nonlinear Blending Synergy is used instead to generate a call (Table 38B). The categorization is similar to the Combination Index. A Nonlinear Blending Synergy within the range (−20, 20) is classified as Additive. A value below −20 is classified as Antagonism, while a value above 20 is classified as Synergy.

The next assay relates to PC9 cell line. The description is as above. It counts as cell-based, human. The method, then:
as §1, §2, §3, §4, §5, §6, §7, §8

A further assay concerns NCI-H1975 cell line. The description is as above. It counts as cell-based, human. The method, then:
as §1, §2, §3, §4, §5, §6, §7, §8

The next assay concerns A431 cell line. Described as above. Type of assay: cell-based. The method, then:
as §1, §2, §3, §4, §5, §6, §7, §8

Where [1] appears, read: in combination with AZD9291 (Compound Y).
The mark [2] stands for this setting: in combination with Afatinib (Compound Y).
Where [3] appears, read: in combination with CO-1686 (Compound Y).
Where [4] appears, read: in combination with AZD9291, call from Combination Index.
Where [5] appears, read: in combination with Afatinib, call from Combination Index.
Setting [6] is: in combination with CO-1686, call from Combination Index.
[7] abbreviates: in combination with Erlotinib (Compound Y).
[8] abbreviates: in combination with Erlotinib, call from Combination Index.

Sequence of human VPS34 (Q8NEB9 whole entry): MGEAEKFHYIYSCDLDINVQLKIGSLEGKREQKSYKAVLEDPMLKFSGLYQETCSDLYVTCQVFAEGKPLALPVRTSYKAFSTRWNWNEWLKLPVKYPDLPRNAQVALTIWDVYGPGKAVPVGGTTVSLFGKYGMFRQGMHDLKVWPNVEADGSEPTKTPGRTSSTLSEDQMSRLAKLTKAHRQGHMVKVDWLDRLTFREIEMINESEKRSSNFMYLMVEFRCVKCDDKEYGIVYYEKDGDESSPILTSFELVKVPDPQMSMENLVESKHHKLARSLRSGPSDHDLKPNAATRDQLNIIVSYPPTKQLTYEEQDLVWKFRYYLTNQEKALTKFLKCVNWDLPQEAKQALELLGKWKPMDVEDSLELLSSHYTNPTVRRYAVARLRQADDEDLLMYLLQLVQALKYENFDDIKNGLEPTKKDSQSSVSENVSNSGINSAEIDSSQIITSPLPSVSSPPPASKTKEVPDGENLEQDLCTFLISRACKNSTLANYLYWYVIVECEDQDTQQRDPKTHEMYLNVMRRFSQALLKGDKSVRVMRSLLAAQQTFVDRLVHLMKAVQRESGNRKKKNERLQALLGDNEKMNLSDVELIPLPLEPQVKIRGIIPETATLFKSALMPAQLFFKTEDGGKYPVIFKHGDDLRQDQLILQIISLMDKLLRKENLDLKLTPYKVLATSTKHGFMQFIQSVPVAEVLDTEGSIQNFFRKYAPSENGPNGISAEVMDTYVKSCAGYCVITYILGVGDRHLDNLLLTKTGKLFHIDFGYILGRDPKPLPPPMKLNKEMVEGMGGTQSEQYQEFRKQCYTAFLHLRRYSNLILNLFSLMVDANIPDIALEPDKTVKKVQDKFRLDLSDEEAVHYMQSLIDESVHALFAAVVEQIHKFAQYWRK

For `Cc1c(-c2ccnc(NC(=O)C3CC3)c2)cnc(Cl)c1NS(=O)(=O)c1ccc(F)cc1F` [Compound I-308, N-(6-chloro-5-{[(2,4-difluorophenyl)sulfonyl]amino}-4-methyl-3,4′-bipyridin-2′-yl)cyclopropanecarboxamide], the half-maximal inhibitory concentration (IC50) on human VPS34 is < 10 nM. The “Combination Index” value in the assay on NCI-H1650 cell line (setting [1]) was determined as 0.53; with NCI-H1650 cell line (setting [2]) it was 0.55; with NCI-H1650 cell line (setting [3]), 0.36; in the assay with PC9 cell line (setting [1]), 1.33; in the assay with PC9 cell line (setting [2]), 1.49; with PC9 cell line (setting [3]) it was 1.19. In addition, the “Combination Index” value with PC9 cell line (setting [7]) is reported as 1.36; with NCI-H1975 cell line (setting [1]), 0.72; in the assay on NCI-H1975 cell line (setting [2]), 0.84; with NCI-H1975 cell line (setting [3]), 0.60; in the assay with A431 cell line (setting [3]), 0.88. Besides, the “Blending Synergy” value amounted to 27.0 with NCI-H1650 cell line, 10.2 in the assay with A431 cell line (setting [1]), 11.2 in the assay with A431 cell line (setting [2]) and 15.2 in the assay with A431 cell line (setting [7]). Besides, the Meaning entry with PC9 cell line (setting [4]) was “Subadditivity (A mean in the range (1.3-2) is classified as Subadditivity)”; with PC9 cell line (setting [5]), “Subadditivity (A mean in the range (1.3-2) is classified as Subadditivity)”; in the assay on PC9 cell line (setting [6]), “Additivity (A mean Combination Index in the range (0.7-1.3) is classified as Additivity)”; with PC9 cell line (setting [8]), “Subadditivity (A mean in the range (1.3-2) is classified as Subadditivity)”; in the assay with A431 cell line (in combination with AZD9291, call from Nonlinear Blending Synergy) it was “Additivity”; in the assay with A431 cell line (in combination with Afatinib, call from Nonlinear Blending Synergy) it was “Additivity”. Also, the Meaning entry in the assay on A431 cell line (setting [6]) is “Additivity (A mean Combination Index in the range (0.7-1.3) is classified as Additivity)”; with A431 cell line (in combination with Erlotinib, call from Nonlinear Blending Synergy) it was “Additivity”.

`Cc1nccc(Nc2cc(-c3cnc(Cl)c(NS(=O)(=O)c4ccc(F)cc4F)c3C)ccn2)n1` [Compound I-299, N-{6-chloro-4-methyl-2′-[(2-methylpyrimidin-4-yl)amino]-3,4′-bipyridin-5-yl}-2,4-difluorobenzenesulfonamide] displayed an IC50 on human VPS34 of 10 to 50 nM. The “Combination Index” value in the assay on NCI-H1650 cell line (setting [1]) is 0.87; with NCI-H1650 cell line (setting [2]) it was 0.47; with NCI-H1650 cell line (setting [3]) it was 0.43; with PC9 cell line (setting [1]), 1.17; in the assay on PC9 cell line (setting [2]) it was 1.37; in the assay with PC9 cell line (setting [3]), 1.00. Moreover, the “Combination Index” value with PC9 cell line (setting [7]) is on record as 1.18; in the assay on NCI-H1975 cell line (setting [1]) it was 0.54; in the assay on NCI-H1975 cell line (setting [2]), 0.68; with NCI-H1975 cell line (setting [3]), 0.72; in the assay on A431 cell line (setting [1]), 1.00; with A431 cell line (setting [2]) it was 1.01. For the same compound, the figures for the “Combination Index” value in the assay on A431 cell line (setting [3]) and in the assay with A431 cell line (setting [7]) were 1.02 and 1.01, respectively. Further, the “Blending Synergy” value in the assay on NCI-H1650 cell line is given as 26.93. The Meaning result is recorded as “Additivity (A mean Combination Index in the range (0.7-1.3) is classified as Additivity)” with PC9 cell line (setting [4]); “Subadditivity (A mean in the range (1.3-2) is classified as Subadditivity)” in the assay with PC9 cell line (setting [5]); “Additivity (A mean Combination Index in the range (0.7-1.3) is classified as Additivity)” with PC9 cell line (setting [6]); “Additivity (A mean Combination Index in the range (0.7-1.3) is classified as Additivity)” in the assay on PC9 cell line (setting [8]); “Additivity (A mean Combination Index in the range (0.7-1.3) is classified as Additivity)” with A431 cell line (setting [4]); “Additivity (A mean Combination Index in the range (0.7-1.3) is classified as Additivity)” in the assay with A431 cell line (setting [5]). Besides, the Meaning entry with A431 cell line (setting [6]) and in the assay on A431 cell line (setting [8]) was “Additivity (A mean Combination Index in the range (0.7-1.3) is classified as Additivity)” throughout.

Turning to `CC(=O)Nc1cc(-c2cnc(C)c(NS(=O)(=O)c3ccc(F)cc3F)c2)ccn1` [Compound I-41, N-(5-{[(2,4-difluorophenyl)sulfonyl]amino}-6-methyl-3,4′-bipyridin-2′-yl)acetamide], the IC50 on human VPS34 is < 10 nM. Also, the “Combination Index” value was 0.92 with NCI-H1650 cell line (setting [1]); 0.72 with NCI-H1650 cell line (setting [2]); 0.58 in the assay with NCI-H1650 cell line (setting [3]); 0.92 in the assay on PC9 cell line (setting [1]); 1.02 in the assay on PC9 cell line (setting [2]); 0.84 in the assay with PC9 cell line (setting [3]). In addition, the “Combination Index” value was found to be 1.02 with PC9 cell line (setting [7]); 0.45 in the assay on NCI-H1975 cell line (setting [1]); 0.58 in the assay on NCI-H1975 cell line (setting [2]); 0.51 with NCI-H1975 cell line (setting [3]); 0.62 in the assay with A431 cell line (setting [1]); 0.24 in the assay on A431 cell line (setting [2]). Also, the “Combination Index” value in the assay with A431 cell line (setting [3]) amounted to 0.74; in the assay on A431 cell line (setting [7]) it was 0.38. The “Blending Synergy” value in the assay on NCI-H1650 cell line is 20.5. The Meaning result with PC9 cell line (setting [4]) is “Additivity (A mean Combination Index in the range (0.7-1.3) is classified as Additivity)”; with PC9 cell line (setting [5]), “Additivity (A mean Combination Index in the range (0.7-1.3) is classified as Additivity)”; in the assay on PC9 cell line (setting [6]), “Additivity (A mean Combination Index in the range (0.7-1.3) is classified as Additivity)”; with PC9 cell line (setting [8]), “Additivity (A mean Combination Index in the range (0.7-1.3) is classified as Additivity)”; in the assay with A431 cell line (setting [4]), “Synergy (A mean in the range (0-0.7) is classified as Synergy)”; in the assay with A431 cell line (setting [5]), “Synergy (A mean in the range (0-0.7) is classified as Synergy)”. The Meaning result is on record as “Additivity (A mean Combination Index in the range (0.7-1.3) is classified as Additivity)” in the assay with A431 cell line (setting [6]) and “Synergy (A mean in the range (0-0.7) is classified as Synergy)” with A431 cell line (setting [8]).

As to `CC(=O)Nc1cc(-c2cnc(C)c(NS(=O)(=O)N(C)C)c2)ccn1` [Compound I-32, N-{5-[(dimethylsulfamoyl)amino]-6-methyl-3,4′-bipyridin-2′-yl}acetamide], at human VPS34, the IC50 is < 10 nM. Moreover, the “Combination Index” value in the assay with NCI-H1650 cell line (setting [2]) amounted to 0.40; in the assay on PC9 cell line (setting [2]), 0.79; in the assay with PC9 cell line (setting [7]) it was 0.78; in the assay on NCI-H1975 cell line (setting [2]), 0.66; in the assay with A431 cell line (setting [2]), 0.25; with A431 cell line (setting [7]), 0.73. Moreover, in the assay with NCI-H1650 cell line, the “Blending Synergy” value was 22.29. Further, the Meaning result in the assay on PC9 cell line (setting [5]) is listed as “Additivity (A mean Combination Index in the range (0.7-1.3) is classified as Additivity)”; with PC9 cell line (setting [8]) it was “Additivity (A mean Combination Index in the range (0.7-1.3) is classified as Additivity)”; with A431 cell line (setting [5]) it was “Synergy (A mean in the range (0-0.7) is classified as Synergy)”; with A431 cell line (setting [8]), “Additivity (A mean Combination Index in the range (0.7-1.3) is classified as Additivity)”.

These data come from patent US9751854B2 (Millennium Pharmaceuticals, Inc., priority 2014, dated 2017).
